Results from patent US11497813B2, “Bortezomib conjugates and methods using same” (Frank EBETINO et al., priority 2015, dated 2022).

Columns and labels:
[1] = test system: mouse MPCs; assay: Osteoblast differentiation of mouse MPCs (ALP staining); assay type: cell-based
Method: FIG. 5A is a scheme of an exemplary synthesis of compound BP-Btz1. FIG. 5B is a series of images of bone slices pre-incubated with 1 μM BP-Btz1, Btz, or bisphosphonate (BP) overnight. Drug solutions were removed and bone slices were washed with PBS extensively. […] (BM) cells from UB^G76V-GFP mice were cultured on bone slices in the presence of M-CSF and RANKL for 9 days. Top images (a): GFP^+ cells were observed under a fluorescence microscope and GFP signal intensity was quantified. Middle images (b): bone slices were fixed and subjected to TRAP staining for osteoclasts (OCs). OC #/slice were counted. Bottom images (c): cells were removed from slices. Toluidine blue staining was performed and pit areas/slice were counted. […] The ALP^+ areas were measured by Image J. *P<0.05 vs. Btz-treated cells.
MPCs are cultured in the OB differentiation medium plus or minus Btz, BT-Btz1 or BT-Btz2 (0.1, 0.5, 1, 5, 10 μM) for 1 to 3 weeks. […] The area of ALP+ and mineralized bone nodule is assessed. The expression levels of OB marker genes (ALP, osteocalcin, Runx2) is measured.
1. […] Following proteasome inhibitor administration, Ub^G76V accumulates and GFP fluorescence is readily apparent. GFP^+ OCs were detected at 4 and 8 hrs after adding Btz to OC cultures, which disappeared at 24 hrs. […] The number and area of OCs and resorption pits are assessed. […]

[2] = test system: Myeloma cells; assay: Myeloma cell growth in vitro (living cell count); assay type: cell-based; conditions: 24 hrs, living cell numbers counted
Method: Myeloma cells were treated with different concentrations of testing compounds for 24 hrs. The living cell numbers were counted. *p<0.05 vs. Btz.

[3] = test system: mice; assay: Survival of mice treated with Btz; assay type: in vivo, mouse
From the text: BP-Btz is expected to have a higher efficacy on 1) reducing OVX-induced bone loss and 2) promoting fracture healing in aged mice with lesser adverse systemic effects than those of Btz. A critical difference between BP-Btz and Btz is that in vivo BP-Btz brings Btz to bone, thereby exerting its bioactivity locally, while Btz can exert its bioactivity systemically. It is hypothesized that BP-Btz conjugates should have similar or better positive bioactivities than Btz on bone volume, but with a significant reduction in side effects. In humans, the toxicities of Btz include peripheral neuropathy and thrombocytopenis (Weathington and Mallampalli, 2014, J. Clin. Invest. 124:6-12). Little is known the toxicity of Btz in mice. […] Although not wishing to be bound by any particular theory, these adverse effects are thought to be due to the systemic distribution of the drug. Thus, the generation of bone-targeted Btz could meet a critical clinical need, by and increasing the local drug concentration to capitalize on the efficacy of BTz while reducing systemic side effects. Because proteasome inhibitors could increase bone volume in normal and OVX mice, and promote fracture healing in adult mice (Khedgikar et al., 2013, Cell Death Dis. 4:e778; Maseda et al., 2008, Cell Death Differ. 15:600-612), OVX and fracture models are used to examine the efficacy of the leading BP-Btz conjugates on bone. […]

## CC(C)C[C@H](NC(=O)[C@H](Cc1ccccc1)NC(=O)c1cnccn1)B1OCCN(CCOC(=O)NC(P(=O)(O)O)P(=O)(O)O)CCO1 [BP-Btz1]
[1]
  osteoblast differentiation: stimulates osteoblast differentiation
[2]
  myeloma cell growth: inhibits myeloma cell growth

## CC(C)C[C@H](NC(=O)[C@H](Cc1ccccc1)NC(=O)c1cnccn1)B(O)O [Btz, [(1R)-3-methyl-1-[[(2S)-1-oxo-3-phenyl-2[(pyrazinylcarbonyl)amino]propyl]amino]butyl] boronic acid]
[3]; aged mice
  survival rate: 53%
[3]; young mice
  survival: 94%
